Assay results as given in ChEMBL document CHEMBL6178016, “Design, Synthesis, and Biological Evaluation of New PDE4 Inhibitors for the Treatment of Pressure Ulcers” (J Med Chem, 2025).
The source made the active and inactive calls. The calls are words filed in the database; no cut-off is given here.

Experiments:
[1] = test system: Enterococcus faecium; assay: Antibacterial activity against Enterococcus faecium BNCC358275 assessed as reduction in bacterial colonies growth at 512 ug/ml measured after 24 hrs by agar plate method; type: functional, organism-based; conditions: dose 512.0 µg/ml
[2] = Half life in Sprague-Dawley rat at 5 mg/kg, iv; type: ADME, organism-based; conditions: in vivo
[3] = Apparent volume of distribution in Sprague-Dawley rat at 5 mg/kg, iv; type: ADME, organism-based; conditions: in vivo, read-out: Vz
[4] = biological target: Cone cGMP-specific 3',5'-cyclic phosphodiesterase subunit alpha' (Homo sapiens, UniProt P51160); assay: Inhibition of PDE6C (unknown origin)
Cone cGMP-specific 3',5'-cyclic phosphodiesterase subunit alpha', sequence (P51160 whole entry): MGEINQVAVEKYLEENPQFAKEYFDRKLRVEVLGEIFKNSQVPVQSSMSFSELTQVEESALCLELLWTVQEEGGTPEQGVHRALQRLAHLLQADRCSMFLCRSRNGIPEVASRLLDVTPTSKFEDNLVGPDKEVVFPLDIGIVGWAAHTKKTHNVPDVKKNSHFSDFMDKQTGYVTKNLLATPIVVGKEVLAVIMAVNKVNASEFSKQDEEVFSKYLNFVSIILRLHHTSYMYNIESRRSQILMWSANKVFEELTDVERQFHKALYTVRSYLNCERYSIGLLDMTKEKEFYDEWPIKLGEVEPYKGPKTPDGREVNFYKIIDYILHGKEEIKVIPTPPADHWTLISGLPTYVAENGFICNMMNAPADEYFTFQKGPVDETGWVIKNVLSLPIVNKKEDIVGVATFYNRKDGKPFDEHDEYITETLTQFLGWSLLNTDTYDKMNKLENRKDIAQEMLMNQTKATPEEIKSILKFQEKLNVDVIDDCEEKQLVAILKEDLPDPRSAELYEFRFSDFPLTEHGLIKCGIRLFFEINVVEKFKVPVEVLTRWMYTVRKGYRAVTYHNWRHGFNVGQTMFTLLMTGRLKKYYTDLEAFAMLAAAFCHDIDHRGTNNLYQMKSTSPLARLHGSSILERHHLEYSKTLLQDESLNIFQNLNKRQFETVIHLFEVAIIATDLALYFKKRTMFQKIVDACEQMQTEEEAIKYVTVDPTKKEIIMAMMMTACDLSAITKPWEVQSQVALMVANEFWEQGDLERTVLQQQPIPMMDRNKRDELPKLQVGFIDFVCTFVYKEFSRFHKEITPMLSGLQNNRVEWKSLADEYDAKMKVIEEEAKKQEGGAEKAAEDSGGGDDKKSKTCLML

[5] = Toxicity in male Sprague-Dawley rat assessed as pathological changes in kidney by H and E staining based analysis; type: tissue-based; conditions: in vivo
[6] = biological target: Dual 3',5'-cyclic-AMP and -GMP phosphodiesterase 11A (Homo sapiens, UniProt Q9HCR9); assay: Inhibition of PDE11A (unknown origin)
[7] = Acute toxicity in female Kunming mouse assessed as effect on weight at 500 to 4000 mg/kg measured after 14 days; type: organism-based; conditions: in vivo, 336 h, dose 500-4000 mg/kg, time 14 day
[8] = Acute toxicity in female Kunming mouse assessed as effect on pathological changes in kidney at 500 to 4000 mg/kg measured after 14 days by H and E staining based analysis; type: organism-based; conditions: in vivo, 336 h, dose 500-4000 mg/kg, time 14 day
[9] = Acute toxicity in female Kunming mouse assessed as effect on pathological changes in spleen at 500 to 4000 mg/kg measured after 14 days by H and E staining based analysis; type: organism-based; conditions: in vivo, 336 h, dose 500-4000 mg/kg, time 14 day
[10] = test system: Rattus norvegicus; assay: Antiinflammatory activity against male Sprague-Dawley rat pressure ulcer model assessed as appearance of thinner epidermal layer at 0.625 to 2.5% administered as ointment by Masson staining based analysis; type: functional, organism-based
[11] = Toxicity in male Sprague-Dawley rat assessed as pathological changes in liver by H and E staining based analysis; type: tissue-based; conditions: in vivo
[12] = test system: Rattus norvegicus; assay: Antiinflammatory activity against male Sprague-Dawley rat pressure ulcer model assessed as appearance of orderly arranged cells at 0.625 to 2.5% administered as ointment by H and E staining based analysis; type: functional, organism-based
[13] = test system: Enterococcus faecalis; assay: Antibacterial activity against Enterococcus faecalis BNCC296862 assessed as reduction in bacterial colonies growth at 512 ug/ml measured after 24 hrs by agar plate method; type: functional, organism-based; conditions: dose 512.0 µg/ml
[14] = test system: Rattus norvegicus; assay: Antiinflammatory activity against male Sprague-Dawley rat pressure ulcer model assessed as increase in number of fibroblasts at 0.625 to 2.5% administered as ointment by Masson staining based analysis; type: functional, organism-based
[15] = test system: RAW264.7; assay: Cytotoxicity against mouse RAW264.7 cells at 10 uM measured after 24 hrs by CCK-8 method; type: functional, cell-based
[16] = Half life in Sprague-Dawley rat at 10 mg/kg, po; type: ADME, organism-based; conditions: in vivo
[17] = Cmax in Sprague-Dawley rat at 10 mg/kg, po; type: ADME, organism-based; conditions: in vivo
[18] = biological target: Dual specificity calcium/calmodulin-dependent 3',5'-cyclic nucleotide phosphodiesterase 1A (Homo sapiens, UniProt P54750); assay: Inhibition of PDE1A (unknown origin)
[19] = test system: Rattus norvegicus; assay: Antiinflammatory activity against male Sprague-Dawley rat pressure ulcer model assessed as reduction in IL6 mRNA expression in skin at 1.25% administered as ointment by qRT-PCR analysis; type: functional, organism-based
[20] = biological target: Cytochrome P450 2D6 (Homo sapiens, UniProt P10635); assay: Inhibition of human CYP2D6; type: ADME
Cytochrome P450 2D6, sequence (P10635 whole entry): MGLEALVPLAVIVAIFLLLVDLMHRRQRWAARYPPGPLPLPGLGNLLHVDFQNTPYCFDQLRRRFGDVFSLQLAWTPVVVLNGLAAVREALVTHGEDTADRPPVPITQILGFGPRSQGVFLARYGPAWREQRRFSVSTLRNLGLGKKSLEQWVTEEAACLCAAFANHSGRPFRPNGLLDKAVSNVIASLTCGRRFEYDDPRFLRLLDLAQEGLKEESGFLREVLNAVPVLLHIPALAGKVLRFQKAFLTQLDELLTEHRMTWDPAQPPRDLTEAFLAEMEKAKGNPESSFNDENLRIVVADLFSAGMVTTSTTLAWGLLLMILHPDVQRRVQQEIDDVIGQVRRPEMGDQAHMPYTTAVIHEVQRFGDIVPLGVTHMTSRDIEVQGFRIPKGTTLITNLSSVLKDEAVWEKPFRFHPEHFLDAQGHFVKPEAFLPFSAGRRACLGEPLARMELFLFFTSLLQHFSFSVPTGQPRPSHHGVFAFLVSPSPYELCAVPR

[21] = biological target: 3',5'-cyclic-AMP phosphodiesterase 4D (Homo sapiens, UniProt Q08499); assay: Inhibition of PDE4D (unknown origin) at 1 uM relative to control
3',5'-cyclic-AMP phosphodiesterase 4D, sequence (Q08499 whole entry): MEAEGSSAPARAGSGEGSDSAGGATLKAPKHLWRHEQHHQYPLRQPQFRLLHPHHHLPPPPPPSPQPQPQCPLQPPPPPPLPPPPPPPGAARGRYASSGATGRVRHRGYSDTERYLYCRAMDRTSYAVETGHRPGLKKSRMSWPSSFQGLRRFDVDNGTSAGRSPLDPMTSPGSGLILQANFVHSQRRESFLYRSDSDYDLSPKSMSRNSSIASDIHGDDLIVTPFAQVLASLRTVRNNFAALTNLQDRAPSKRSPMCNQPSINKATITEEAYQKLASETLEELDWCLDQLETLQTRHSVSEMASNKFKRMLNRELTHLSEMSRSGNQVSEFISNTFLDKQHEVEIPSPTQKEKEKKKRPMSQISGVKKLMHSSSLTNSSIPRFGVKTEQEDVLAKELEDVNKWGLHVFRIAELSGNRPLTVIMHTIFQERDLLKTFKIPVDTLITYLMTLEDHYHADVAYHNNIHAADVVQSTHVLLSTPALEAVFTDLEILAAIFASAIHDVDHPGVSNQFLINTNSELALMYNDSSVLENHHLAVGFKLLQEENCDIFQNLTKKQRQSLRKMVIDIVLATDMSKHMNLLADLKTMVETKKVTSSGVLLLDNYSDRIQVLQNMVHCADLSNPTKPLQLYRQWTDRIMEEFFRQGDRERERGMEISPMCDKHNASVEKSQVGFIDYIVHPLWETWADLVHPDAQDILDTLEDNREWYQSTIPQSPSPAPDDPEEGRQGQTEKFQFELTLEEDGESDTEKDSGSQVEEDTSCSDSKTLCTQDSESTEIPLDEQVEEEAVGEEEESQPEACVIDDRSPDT

[22] = organism: Rattus norvegicus; assay: Antiinflammatory activity against male Sprague-Dawley rat pressure ulcer model assessed as increase in CREB phosphorylation expression by immunohistochemical staining based analysis; type: functional, organism-based
[23] = biological target: cAMP and cAMP-inhibited cGMP 3',5'-cyclic phosphodiesterase 10A (Homo sapiens, UniProt Q9Y233); assay: Inhibition of PDE10A (unknown origin)
[24] = biological target: Voltage-gated inwardly rectifying potassium channel KCNH2 (Homo sapiens, UniProt Q12809); assay: Inhibition of human ERG stably expressed in HEK293 cells by manual membrane clamp technique; type: toxicity, cell-based
[25] = test system: Mus musculus; assay: Antiallodynic activity in female C57/BL mouse assessed as increase in response latency at 60 mg/kg, ip measured after 3 to 7 days by hot plate method; type: functional, organism-based; conditions: time 3-7 day
[26] = AUC (0 to t) in Sprague-Dawley rat at 5 mg/kg, iv; type: ADME, organism-based; conditions: in vivo
[27] = biological target: cGMP-dependent 3',5'-cyclic phosphodiesterase (Homo sapiens, UniProt O00408); assay: Inhibition of PDE2A (unknown origin)
cGMP-dependent 3',5'-cyclic phosphodiesterase, sequence (O00408 whole entry): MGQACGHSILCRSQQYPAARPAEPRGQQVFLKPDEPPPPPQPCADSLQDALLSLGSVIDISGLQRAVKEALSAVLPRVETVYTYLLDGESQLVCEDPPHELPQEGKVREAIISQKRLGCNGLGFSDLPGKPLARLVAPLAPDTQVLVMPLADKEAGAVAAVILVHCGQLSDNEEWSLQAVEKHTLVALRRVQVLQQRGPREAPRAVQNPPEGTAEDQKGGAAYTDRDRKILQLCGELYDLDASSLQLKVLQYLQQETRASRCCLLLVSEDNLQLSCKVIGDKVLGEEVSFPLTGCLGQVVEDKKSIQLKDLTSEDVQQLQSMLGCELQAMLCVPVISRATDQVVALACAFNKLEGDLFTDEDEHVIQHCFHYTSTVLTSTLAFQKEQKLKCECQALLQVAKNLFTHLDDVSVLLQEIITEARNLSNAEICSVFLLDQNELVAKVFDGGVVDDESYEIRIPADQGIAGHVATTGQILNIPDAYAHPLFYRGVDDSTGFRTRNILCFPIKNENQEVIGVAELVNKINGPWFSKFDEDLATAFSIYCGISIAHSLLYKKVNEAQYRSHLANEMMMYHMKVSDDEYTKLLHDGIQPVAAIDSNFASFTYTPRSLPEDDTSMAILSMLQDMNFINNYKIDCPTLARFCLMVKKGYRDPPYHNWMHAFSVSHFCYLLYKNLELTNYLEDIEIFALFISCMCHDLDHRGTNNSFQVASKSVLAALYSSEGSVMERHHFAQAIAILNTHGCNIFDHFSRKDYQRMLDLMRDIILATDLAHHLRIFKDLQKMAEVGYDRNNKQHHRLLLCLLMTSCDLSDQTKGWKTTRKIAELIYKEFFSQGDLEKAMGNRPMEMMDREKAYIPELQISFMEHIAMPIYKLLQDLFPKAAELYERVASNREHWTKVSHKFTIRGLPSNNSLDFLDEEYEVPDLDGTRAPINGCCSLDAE

[28] = AUC (0 to t) in Sprague-Dawley rat at 10 mg/kg, po; type: ADME, organism-based; conditions: in vivo
[29] = biological target: High affinity cGMP-specific 3',5'-cyclic phosphodiesterase 9A (Homo sapiens, UniProt O76083); assay: Inhibition of PDE9A (unknown origin)
High affinity cGMP-specific 3',5'-cyclic phosphodiesterase 9A, sequence (O76083 whole entry): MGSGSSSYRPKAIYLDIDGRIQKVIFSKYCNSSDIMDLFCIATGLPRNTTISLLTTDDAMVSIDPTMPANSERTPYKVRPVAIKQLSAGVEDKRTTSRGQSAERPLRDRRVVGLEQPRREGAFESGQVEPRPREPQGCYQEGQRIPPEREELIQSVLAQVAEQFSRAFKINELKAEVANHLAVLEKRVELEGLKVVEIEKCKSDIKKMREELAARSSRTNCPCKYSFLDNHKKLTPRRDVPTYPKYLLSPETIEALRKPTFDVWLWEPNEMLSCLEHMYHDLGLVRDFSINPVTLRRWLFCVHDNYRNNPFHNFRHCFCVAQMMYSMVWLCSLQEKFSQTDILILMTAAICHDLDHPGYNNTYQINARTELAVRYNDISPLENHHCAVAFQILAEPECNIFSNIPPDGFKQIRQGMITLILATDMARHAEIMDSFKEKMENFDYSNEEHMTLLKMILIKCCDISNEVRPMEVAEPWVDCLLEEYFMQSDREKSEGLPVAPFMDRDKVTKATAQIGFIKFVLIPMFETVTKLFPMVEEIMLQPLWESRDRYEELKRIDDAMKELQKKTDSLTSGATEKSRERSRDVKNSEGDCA

[30] = test system: RAW264.7; assay: Antiinflammatory activity against LPS induced mouse RAW264.7 cells assessed as increase in CREB phosphorylation expression at 5 to 20 uM by Western blot analysis; type: functional, cell-based; conditions: dose 5-20 µM
[31] = biological target: Cytochrome P450 3A4 (Homo sapiens, UniProt P08684); assay: Inhibition of human CYP3A4; type: ADME
[32] = Acute toxicity in female Kunming mouse assessed as effect on pathological changes in liver at 500 to 4000 mg/kg measured after 14 days by H and E staining based analysis; type: organism-based; conditions: in vivo, 336 h, dose 500-4000 mg/kg, time 14 day
[33] = Acute toxicity in male Kunming mouse assessed as effect on pathological changes in liver at 500 to 4000 mg/kg measured after 14 days by H and E staining based analysis; type: organism-based; conditions: in vivo, 336 h, dose 500-4000 mg/kg, time 14 day
[34] = test system: RAW264.7; assay: Antiinflammatory activity against LPS induced mouse RAW264.7 cells assessed as increase in CREB phosphorylation expression at 5 to 20 uM by immunofluorescence analysis; type: functional, cell-based; conditions: dose 5-20 µM
[35] = Clearance in Sprague-Dawley rat at 5 mg/kg, iv; type: ADME, organism-based; conditions: in vivo
[36] = test system: RAW264.7; assay: Antiinflammatory activity against mouse RAW264.7 cells assessed as inhibition of LPS-induced NO release preincubated for 2 hrs followed by LPS stimulation and measured after 4 hrs by RT-PCR analysis; type: functional, cell-based
[37] = Acute toxicity in male Kunming mouse assessed as effect on weight at 500 to 4000 mg/kg measured after 14 days; type: organism-based; conditions: in vivo, 336 h, dose 500-4000 mg/kg, time 14 day
[38] = biological target: High affinity cAMP-specific and IBMX-insensitive 3',5'-cyclic phosphodiesterase 8A (Homo sapiens, UniProt O60658); assay: Inhibition of PDE8A (unknown origin)
High affinity cAMP-specific and IBMX-insensitive 3',5'-cyclic phosphodiesterase 8A, sequence (O60658 whole entry): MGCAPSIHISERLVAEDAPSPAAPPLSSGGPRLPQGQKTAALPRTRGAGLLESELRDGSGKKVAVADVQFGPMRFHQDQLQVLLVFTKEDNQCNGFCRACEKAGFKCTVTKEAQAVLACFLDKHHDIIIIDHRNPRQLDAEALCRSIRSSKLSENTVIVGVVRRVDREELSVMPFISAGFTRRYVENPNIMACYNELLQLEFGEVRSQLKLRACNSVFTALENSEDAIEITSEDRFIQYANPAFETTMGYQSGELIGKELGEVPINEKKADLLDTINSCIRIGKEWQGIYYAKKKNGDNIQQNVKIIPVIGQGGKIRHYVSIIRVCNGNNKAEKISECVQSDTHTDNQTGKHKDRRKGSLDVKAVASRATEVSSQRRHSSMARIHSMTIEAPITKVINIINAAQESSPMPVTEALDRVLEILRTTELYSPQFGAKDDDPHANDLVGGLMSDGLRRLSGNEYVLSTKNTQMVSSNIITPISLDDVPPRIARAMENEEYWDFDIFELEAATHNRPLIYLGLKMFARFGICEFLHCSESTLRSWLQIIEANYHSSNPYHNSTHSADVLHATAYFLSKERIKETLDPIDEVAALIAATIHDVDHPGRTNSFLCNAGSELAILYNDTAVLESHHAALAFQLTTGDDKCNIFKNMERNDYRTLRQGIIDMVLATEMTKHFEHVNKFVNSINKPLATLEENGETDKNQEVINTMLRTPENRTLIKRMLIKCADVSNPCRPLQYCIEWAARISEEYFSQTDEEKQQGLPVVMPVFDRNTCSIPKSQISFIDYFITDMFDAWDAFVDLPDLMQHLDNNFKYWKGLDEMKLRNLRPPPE

[39] = biological target: High affinity 3',5'-cyclic-AMP phosphodiesterase 7A (Homo sapiens, UniProt Q13946); assay: Inhibition of PDE7A (unknown origin)
High affinity 3',5'-cyclic-AMP phosphodiesterase 7A, sequence (Q13946 whole entry): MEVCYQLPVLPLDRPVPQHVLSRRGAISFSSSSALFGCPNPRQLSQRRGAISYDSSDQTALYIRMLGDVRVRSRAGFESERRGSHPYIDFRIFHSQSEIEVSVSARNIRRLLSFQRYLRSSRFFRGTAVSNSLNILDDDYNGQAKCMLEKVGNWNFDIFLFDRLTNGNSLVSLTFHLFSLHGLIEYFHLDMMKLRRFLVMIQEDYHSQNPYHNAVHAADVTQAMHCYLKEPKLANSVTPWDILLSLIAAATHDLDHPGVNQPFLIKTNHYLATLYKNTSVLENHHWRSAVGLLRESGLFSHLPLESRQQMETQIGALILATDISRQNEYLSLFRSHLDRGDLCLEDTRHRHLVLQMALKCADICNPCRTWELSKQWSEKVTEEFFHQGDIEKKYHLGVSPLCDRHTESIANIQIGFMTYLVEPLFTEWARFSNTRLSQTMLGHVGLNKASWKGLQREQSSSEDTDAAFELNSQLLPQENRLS

[40] = Acute toxicity in male Kunming mouse assessed as effect on pathological changes in heart at 500 to 4000 mg/kg measured after 14 days by H and E staining based analysis; type: organism-based; conditions: in vivo, 336 h, dose 500-4000 mg/kg, time 14 day
[41] = test system: Rattus norvegicus; assay: Antiinflammatory activity against male Sprague-Dawley rat pressure ulcer model assessed as decrease in inflammatory cells in dermis at 0.625 to 2.5% administered as ointment by H and E staining based analysis; type: functional, organism-based
[42] = Acute toxicity in female Kunming mouse assessed as effect on pathological changes in heart at 500 to 4000 mg/kg measured after 14 days by H and E staining based analysis; type: organism-based; conditions: in vivo, 336 h, dose 500-4000 mg/kg, time 14 day

What does the source list for `Cn1c(=O)c2c(ncn2CCC(=O)NNC(=O)c2cc3nccc(-c4ccc(OC(F)F)c(OCC5CC5)c4)n3n2)n(C)c1=O`?
Activity [1]: Active; half-life [2]: 16.8 min; Vd [3]: 8.79 L/kg; IC50 [4]: > 50 µM; Activity [5]: Non-toxic; IC50 [6]: > 50 µM; Activity [7]: Non-toxic; Activity [8]: Non-toxic; Activity [9]: Non-toxic; Activity [10]: Active; Activity [11]: Non-toxic; Activity [12]: Active; Activity [13]: Active; Activity [14]: Active; Activity [15]: inactive; half-life [16]: 84 min; Cmax [17]: 14.4 ng/mL; IC50 [18]: > 50 µM; Activity [19]: Active; IC50 [20]: > 50 µM; inhibition [21]: 95.8%; Activity [22]: Active; IC50 [23]: 1.12 µM; IC50 [24]: > 10 µM; Activity [25]: Active; AUC(0-t) [26]: 235 ng·h/mL; IC50 [27]: > 50 µM; AUC(0-t) [28]: 25.6 ng·h/mL; IC50 [29]: > 50 µM; Activity [30]: Active; IC50 [31]: > 50 µM; Activity [32]: Non-toxic; Activity [33]: Non-toxic; Activity [34]: Active; clearance [35]: 358 mL/min/kg; IC50 [36]: 2.32 µM; Activity [37]: Non-toxic; IC50 [38]: 1.72 µM; IC50 [39]: 15.1 µM; Activity [40]: Non-toxic; Activity [41]: Active; Activity [42]: Non-toxic
